One may read the GI50 as the concentration at which growth is held to half of that of the control. The TGI is the concentration giving total growth inhibition.

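Briefly, cells in 96-well plates were exposed to five compound concentrations for 48 h, and endpoints were estimated by linear interpolation. Abbreviation: GI50, concentration required for 50% inhibition of growth. TGI: total growth inhibition.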

The source of these data is PubChem BioAssay (NCI).

Test systems include SF-268 CNS; RXF 393 renal; NCI-H460 lung; NCI-H226 lung; UACC-62 melanoma; HCT-15 colon; U251 CNS; MOLT-4 leukemia; OVCAR-5 ovarian; RPMI-8226 leukemia.
Holding throughout (test): DTP human tumour cell line panel, 48 h

`Cn1c2c(c3c(Cl)nncc31)Cc1ccccc1-2`: the GI50 was 25.9 µM with SF-268 CNS; 24.5 µM in the assay with RXF 393 renal; 5.28 µM in the assay with NCI-H460 lung; 15.6 µM with NCI-H226 lung; 13.9 µM in the assay with UACC-62 melanoma; 22.2 µM with HCT-15 colon. In addition, the GI50 was 20 µM in the assay with U251 CNS, 3.12 µM with MOLT-4 leukemia, 27.4 µM in the assay on OVCAR-5 ovarian and 18.1 µM in the assay on RPMI-8226 leukemia. Moreover, the total growth inhibition concentration (TGI) with SF-268 CNS was > 100 µM; in the assay on RXF 393 renal, 80.7 µM; in the assay with NCI-H460 lung it was 67.1 µM; in the assay with NCI-H226 lung it was 46.8 µM; in the assay on UACC-62 melanoma it was 62 µM; in the assay on HCT-15 colon it was > 100 µM. Besides, the TGI in the assay with U251 CNS, in the assay on OVCAR-5 ovarian and in the assay with RPMI-8226 leukemia was > 100 µM each time.
On to `C/C(=C(\c1ccc(OCCN2CCCCCC2)cc1)c1ccc(OC(=O)c2ccccc2)cc1)c1ccc(Cl)cc1`, for which the GI50 was 3.49 µM in the assay on SF-268 CNS; 3.71 µM with RXF 393 renal; 2.5 µM in the assay with NCI-H460 lung; 5.47 µM with NCI-H226 lung; 5.1 µM in the assay with UACC-62 melanoma; 1.4 µM in the assay on HCT-15 colon. Further, the GI50 is 3.76 µM in the assay on U251 CNS, 2.25 µM in the assay on MOLT-4 leukemia, 3.93 µM in the assay on OVCAR-5 ovarian and 3.03 µM in the assay with RPMI-8226 leukemia. Moreover, the total growth inhibition concentration (TGI) in the assay with SF-268 CNS stood at 9.7 µM; in the assay with RXF 393 renal, 8.18 µM; in the assay with NCI-H460 lung, 7.44 µM; with NCI-H226 lung, 11.1 µM; in the assay on UACC-62 melanoma it was 11.1 µM; with HCT-15 colon, 5.99 µM. The TGI with U251 CNS was 8.08 µM; in the assay with MOLT-4 leukemia, 10.9 µM; in the assay on OVCAR-5 ovarian, 8.82 µM; with RPMI-8226 leukemia, 10.2 µM.
`CC[C@@H](C)/C=C(C)/C=C/C(=O)c1c(O)c(-c2ccc(O)cc2)cn(O)c1=O`: the GI50 is 0.33 µM with SF-268 CNS; 0.22 µM in the assay on RXF 393 renal; 0.292 µM in the assay with NCI-H460 lung; 0.274 µM in the assay with NCI-H226 lung; 0.266 µM in the assay with UACC-62 melanoma; 0.396 µM with HCT-15 colon. Moreover, the GI50 is 0.374 µM in the assay with U251 CNS, 0.31 µM in the assay with MOLT-4 leukemia, 2.71 µM in the assay with OVCAR-5 ovarian and 0.504 µM in the assay with RPMI-8226 leukemia. Moreover, the TGI in the assay on SF-268 CNS was 12.3 µM; in the assay with RXF 393 renal it was 2.25 µM; in the assay with NCI-H460 lung, 1.11 µM; in the assay with NCI-H226 lung, 4.88 µM; in the assay with UACC-62 melanoma it was 0.966 µM; in the assay with HCT-15 colon, 16.1 µM. The TGI was 11.2 µM in the assay with U251 CNS, 15.7 µM with MOLT-4 leukemia, 20.8 µM in the assay on OVCAR-5 ovarian and 18 µM with RPMI-8226 leukemia.
As to `COC1(OC)C2(Cl)C(Cl)=C(Cl)C1(Cl)C1C2C2CC1(C(=O)O)c1ccccc12` (stereo unspecified), the TGI was 55.8 µM with SF-268 CNS; 47.8 µM with NCI-H460 lung; 52.5 µM in the assay on NCI-H226 lung; 34.8 µM with UACC-62 melanoma; 62.3 µM with HCT-15 colon; 35.5 µM with U251 CNS. Further, the concentration for total growth inhibition (TGI) in the assay with MOLT-4 leukemia came out at 43.3 µM; with RPMI-8226 leukemia it was 54.5 µM.
Take `COC(=O)C1=CC2C=CC(C1C(=O)OC)C1C(C(=O)OC)=C(C(=O)OC)C(C(=O)OC)=C(C(=O)OC)C21OC` (stereo unspecified): the TGI with SF-268 CNS, in the assay on RXF 393 renal, with NCI-H460 lung, with NCI-H226 lung, in the assay with UACC-62 melanoma and in the assay on HCT-15 colon was > 100 µM each time. Also, the TGI in the assay with U251 CNS, with MOLT-4 leukemia, in the assay with OVCAR-5 ovarian and with RPMI-8226 leukemia was > 100 µM in each case.
Regarding `O=C(NCC1CCCO1)c1ccc(NC2=C(Cl)C(=O)N(Cc3ccccc3)C2=O)cc1` (stereo unspecified), the GI50 with SF-268 CNS was 13.2 µM; in the assay on RXF 393 renal, 20.6 µM; in the assay on NCI-H460 lung, 15.5 µM; in the assay with NCI-H226 lung, 11.8 µM; in the assay on UACC-62 melanoma it was 10.8 µM; in the assay on HCT-15 colon, 19 µM. In addition, the GI50 was 18.6 µM in the assay on U251 CNS, 4.49 µM with MOLT-4 leukemia, 16.6 µM in the assay on OVCAR-5 ovarian and 3.36 µM in the assay with RPMI-8226 leukemia. Further, the concentration for total growth inhibition (TGI) in the assay on SF-268 CNS worked out at 45.4 µM; in the assay with RXF 393 renal, 50.8 µM; in the assay with NCI-H460 lung it was 46.5 µM; in the assay with NCI-H226 lung, 26.7 µM; in the assay with UACC-62 melanoma it was 24.3 µM; in the assay on HCT-15 colon, 62.3 µM. In addition, the TGI was 40.7 µM in the assay on U251 CNS, > 100 µM in the assay on MOLT-4 leukemia, 32.8 µM with OVCAR-5 ovarian and 12.7 µM in the assay with RPMI-8226 leukemia.
As to `Nc1ccccc1C(=O)CCC1C(=O)NC(=S)NC1=O`, the TGI in the assay with SF-268 CNS, with RXF 393 renal, in the assay with NCI-H460 lung, in the assay with NCI-H226 lung, with UACC-62 melanoma and with HCT-15 colon was > 100 µM each time. Moreover, the TGI in the assay on U251 CNS, with MOLT-4 leukemia, in the assay with OVCAR-5 ovarian and in the assay with RPMI-8226 leukemia was > 100 µM each time.
Regarding `N#CC(C(=O)/C(=N\NC(N)=O)C(C#N)c1ccccc1)c1ccccc1` (stereo unspecified), the TGI in the assay on SF-268 CNS, with RXF 393 renal, in the assay with NCI-H460 lung, in the assay with NCI-H226 lung, with UACC-62 melanoma and with HCT-15 colon was > 100 µM in each case. In addition, the TGI with U251 CNS, in the assay with MOLT-4 leukemia, in the assay on OVCAR-5 ovarian and in the assay on RPMI-8226 leukemia was > 100 µM in each case.
Regarding `Cc1cc(=O)n(-c2cc3cccccc-3n2)[nH]1`, the concentration for total growth inhibition (TGI) in the assay on RXF 393 renal was 11.2 µM; in the assay with NCI-H460 lung it was 16.1 µM; in the assay with NCI-H226 lung, 44.4 µM; in the assay on UACC-62 melanoma, 7.61 µM; in the assay on HCT-15 colon it was 25.5 µM; in the assay on U251 CNS it was 4.96 µM. Moreover, the TGI is > 100 µM in the assay with MOLT-4 leukemia, > 100 µM in the assay with OVCAR-5 ovarian and 67.2 µM in the assay with RPMI-8226 leukemia.
